Results: the supplement of paper PMC11061612

Key:
Venetoclax = compound: CC1(C)CCC(CN2CCN(c3ccc(C(=O)NS(=O)(=O)c4ccc(NCC5CCOCC5)c([N+](=O)[O-])c4)c(Oc4cnc5[nH]ccc5c4)c3)CC2)=C(c2ccc(Cl)cc2)C1 [Venetoclax]; conditions: max 1 µM
How it was run: (§1)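 Cancer cell lines were dosed for 72 hours (final DMSO typically 0.2%) after 24 hours at 37°C and 5% CO2 in 1536-well plates containing 7.5 μl DMEM/F12 or RPMI with 10% FBS. Viability came from CellTiter-Glo 2.0 luminescence, scaled between blank-well and DMSO-well means, and dose responses were fitted to a two-parameter logistic curve with a non-linear mixed effects model. The single-agent IC50 was obtained from this fit.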

Selumetinib = compound: Cn1cnc2c(F)c(Nc3ccc(Br)cc3Cl)c(C(=O)NOCCO)cc21 [Selumetinib]; conditions: max 10 µM
How it was run: as §1

Taselisib = compound: Cc1nc(-c2cn3c(n2)-c2ccc(-c4cnn(C(C)(C)C(N)=O)c4)cc2OCC3)n(C(C)C)n1 [Taselisib]; conditions: max 10 µM
How it was run: as §1

Trametinib = compound: CC(=O)Nc1cccc(-n2c(=O)n(C3CC3)c(=O)c3c(Nc4ccc(I)cc4F)n(C)c(=O)c(C)c32)c1 [Trametinib]; conditions: max 1 µM
How it was run: as §1

Savolitinib = compound: C[C@@H](c1ccc2nccn2c1)n1nnc2ncc(-c3cnn(C)c3)nc21 [Savolitinib]; conditions: max 1 µM
How it was run: as §1

Doxorubicin = compound: COc1cccc2c1C(=O)c1c(O)c3c(c(O)c1C2=O)C[C@@](O)(C(=O)CO)C[C@@H]3O[C@H]1C[C@H](N)[C@H](O)[C@H](C)O1 [Doxorubicin]; conditions: max 1 µM
How it was run: as §1

Alisertib = compound: COc1cc(Nc2ncc3c(n2)-c2ccc(Cl)cc2C(c2c(F)cccc2OC)=NC3)ccc1C(=O)O [Alisertib]; conditions: max 10 µM
How it was run: as §1

AZD1390 = compound: CC(C)n1c(=O)n(C)c2cnc3cc(F)c(-c4ccc(OCCCN5CCCCC5)nc4)cc3c21 [AZD1390]; conditions: max 0.3 µM
How it was run: as §1

Gefitinib = compound: COc1cc2ncnc(Nc3ccc(F)c(Cl)c3)c2cc1OCCCN1CCOCC1 [Gefitinib]; conditions: max 10 µM
How it was run: as §1

Prexasertib = compound: COc1cccc(OCCCN)c1-c1cc(Nc2cnc(C#N)cn2)n[nH]1 [Prexasertib]; conditions: max 1 µM
How it was run: as §1

Lapatinib = compound: CS(=O)(=O)CCNCc1ccc(-c2ccc3ncnc(Nc4ccc(OCc5cccc(F)c5)c(Cl)c4)c3c2)o1 [Lapatinib]; conditions: max 10 µM
How it was run: as §1

SN-38 = compound: CCc1c2c(nc3ccc(O)cc13)-c1cc3c(c(=O)n1C2)COC(=O)[C@]3(O)CC [SN-38]; conditions: max 0.3 µM
How it was run: as §1

Crizotinib = compound: C[C@@H](Oc1cc(-c2cnn(C3CCNCC3)c2)cnc1N)c1c(Cl)ccc(F)c1Cl [Crizotinib]; conditions: max 10 µM
How it was run: as §1

Capivasertib = compound: C1CN(CCC1(C(=O)N[C@@H](CCO)C2=CC=C(C=C2)Cl)N)C3=NC=NC4=C3C=CN4 [Capivasertib]; conditions: max 10 µM
How it was run: as §1

Palbociclib = compound: CC(=O)c1c(C)c2cnc(Nc3ccc(N4CCNCC4)cn3)nc2n(C2CCCC2)c1=O [Palbociclib]; conditions: max 10 µM
How it was run: as §1

AZD8186 = compound: C[C@@H](Nc1cc(F)cc(F)c1)c1cc(C(=O)N(C)C)cc2c(=O)cc(N3CCOCC3)oc12 [AZD8186]; conditions: max 3 µM
How it was run: as §1

AZD0156 = compound: CN(C)CCCOc1ccc(-c2ccc3ncc4c(c3c2)n(C2CCOCC2)c(=O)n4C)cn1 [AZD0156]; conditions: max 3 µM
How it was run: as §1

AZD5153 = compound: COc1nnc2ccc(N3CCC(c4ccc(OCCN5CCN(C)C(=O)[C@H]5C)cc4)CC3)nn12 [AZD5153]; conditions: max 1 µM
How it was run: as §1

Olaparib = compound: O=C(c1cc(Cc2n[nH]c(=O)c3ccccc23)ccc1F)N1CCN(C(=O)C2CC2)CC1 [Olaparib]; conditions: max 10 µM
How it was run: as §1

SG3199 = compound: CC1=CN2[C@@H](C1)C=NC3=CC(=C(C=C3C2=O)OC)OCCCCCOC4=C(C=C5C(=C4)N=C[C@@H]6CC(=CN6C5=O)C)OC [SG3199]; conditions: max 0.001 µM
How it was run: as §1

AZD6738 = compound: C[C@@H]1COCCN1C2=NC(=NC(=C2)C3(CC3)[S@](=N)(=O)C)C4=C5C=CNC5=NC=C4 [AZD6738]; conditions: max 10 µM
How it was run: as §1

AZD5991 = compound: Cc1c2c(nn1C)CSCc1cc(n(C)n1)CSc1cc(c3ccccc3c1)OCCCc1c(C(=O)O)n(C)c3c-2c(Cl)ccc13 [AZD5991]; conditions: max 1 µM
How it was run: as §1

Dasatinib = compound: CC1=C(C(=CC=C1)Cl)NC(=O)C2=CN=C(S2)NC3=CC(=NC(=N3)C)N4CCN(CC4)CCO [Dasatinib]; conditions: max 2 µM
How it was run: as §1

AZD2811 = compound: CCN(CCO)CCCOc1ccc2c(Nc3cc(CC(=O)Nc4cccc(F)c4)[nH]n3)ncnc2c1 [AZD2811]; conditions: max 1 µM
How it was run: as §1

AZD4320 = compound: CN(CC[C@H](CSC1=CC=CC=C1)NC2=C(C=C(C=C2)S(=O)(=O)NC(=O)C3=CC=C(C=C3)N4CCC(CC4)[C@H](C5=CC=CC=C5C6=CC=C(C=C6)Cl)O)S(=O)(=O)C(F)(F)F)CCO [AZD4320]; conditions: max 1 µM
How it was run: as §1

AZD7648 = compound: Cc1cc2ncnn2cc1Nc1ncc2c(n1)n(C1CCOCC1)c(=O)n2C [AZD7648]; conditions: max 10 µM
How it was run: as §1

AZD1775 = compound: C=CCn1c(=O)c2cnc(Nc3ccc(N4CCN(C)CC4)cc3)nc2n1-c1cccc(C(C)(C)O)n1 [AZD1775]; conditions: max 3 µM
How it was run: as §1

Cell Line	IC50, cell viability 72 h (Venetoclax)	IC50, cell viability 72 h (Selumetinib)	IC50, cell viability 72 h (Taselisib)	IC50, cell viability 72 h (Trametinib)	IC50, cell viability 72 h (Savolitinib)	IC50, cell viability 72 h (Doxorubicin)	IC50, cell viability 72 h (Alisertib)	IC50, cell viability 72 h (AZD1390)	IC50, cell viability 72 h (Gefitinib)	IC50, cell viability 72 h (Prexasertib)	IC50, cell viability 72 h (Lapatinib)	IC50, cell viability 72 h (SN-38)	IC50, cell viability 72 h (Crizotinib)	IC50, cell viability 72 h (Capivasertib)	IC50, cell viability 72 h (Palbociclib)	IC50, cell viability 72 h (AZD8186)	IC50, cell viability 72 h (AZD0156)	IC50, cell viability 72 h (AZD5153)	IC50, cell viability 72 h (Olaparib)	IC50, cell viability 72 h (SG3199)	IC50, cell viability 72 h (AZD6738)	IC50, cell viability 72 h (AZD5991)	IC50, cell viability 72 h (Dasatinib)	IC50, cell viability 72 h (AZD2811)	IC50, cell viability 72 h (AZD4320)	IC50, cell viability 72 h (AZD7648)	IC50, cell viability 72 h (AZD1775)
5637 (Bladder Carcinoma)	> 1000 nM	> 10000 nM	8900 nM	> 1000 nM	> 1000 nM	> 1000 nM	1010 nM	> 300 nM	> 10000 nM	53.2 nM	7560 nM	37.9 nM	> 10000 nM	> 10000 nM	> 10000 nM	> 3000 nM	> 3000 nM	900 nM	> 10000 nM	> 1 nM	6460 nM	> 1000 nM	260 nM	251 nM	> 1000 nM	> 10000 nM	385 nM
A204 (Rhabdomyosarcoma)	> 1000 nM	> 10000 nM	4320 nM	> 1000 nM	> 1000 nM	528 nM	> 10000 nM	> 300 nM	> 10000 nM	362 nM	> 10000 nM	132 nM	> 10000 nM	> 10000 nM	> 10000 nM	> 3000 nM	> 3000 nM	> 1000 nM	> 10000 nM	> 1 nM	> 10000 nM	> 1000 nM	1390 nM	> 1000 nM	> 1000 nM	> 10000 nM	> 3000 nM
A253 (Head and Neck Carcinoma)	> 1000 nM	> 10000 nM	6730 nM	746 nM	> 1000 nM	177 nM	> 10000 nM	> 300 nM	> 10000 nM	110 nM	> 10000 nM	18.7 nM	> 10000 nM	4080 nM	> 10000 nM	> 3000 nM	> 3000 nM	> 1000 nM	> 10000 nM	> 1 nM	4570 nM	447 nM	> 2000 nM	> 1000 nM	> 1000 nM	> 10000 nM	1130 nM
AU565 (Breast Carcinoma)	> 1000 nM	> 10000 nM	3150 nM	> 1000 nM	> 1000 nM	634 nM	9280 nM	> 300 nM	2740 nM	133 nM	358 nM	14.5 nM	> 10000 nM	7950 nM	> 10000 nM	> 3000 nM	> 3000 nM	> 1000 nM	> 10000 nM	> 1 nM	> 10000 nM	68.3 nM	> 2000 nM	> 1000 nM	> 1000 nM	> 10000 nM	435 nM
